This is an account of results in ChEMBL document CHEMBL1201862, “PubChem BioAssay data set” (2004).

Calls of active or inactive are those of the source. A value given as a limit tells only on which side of the number the result lay.

Experiment [1] deals with DNA (cytosine-5)-methyltransferase 1 (Homo sapiens, UniProt P26358). The experiment is described as follows: DNMT1 methyltransferase inhibitors, confirmation, biochemical, fluorescent molecular beacon (AID 602386). In kind it is functional.
Sequence of DNA (cytosine-5)-methyltransferase 1 (P26358 whole entry): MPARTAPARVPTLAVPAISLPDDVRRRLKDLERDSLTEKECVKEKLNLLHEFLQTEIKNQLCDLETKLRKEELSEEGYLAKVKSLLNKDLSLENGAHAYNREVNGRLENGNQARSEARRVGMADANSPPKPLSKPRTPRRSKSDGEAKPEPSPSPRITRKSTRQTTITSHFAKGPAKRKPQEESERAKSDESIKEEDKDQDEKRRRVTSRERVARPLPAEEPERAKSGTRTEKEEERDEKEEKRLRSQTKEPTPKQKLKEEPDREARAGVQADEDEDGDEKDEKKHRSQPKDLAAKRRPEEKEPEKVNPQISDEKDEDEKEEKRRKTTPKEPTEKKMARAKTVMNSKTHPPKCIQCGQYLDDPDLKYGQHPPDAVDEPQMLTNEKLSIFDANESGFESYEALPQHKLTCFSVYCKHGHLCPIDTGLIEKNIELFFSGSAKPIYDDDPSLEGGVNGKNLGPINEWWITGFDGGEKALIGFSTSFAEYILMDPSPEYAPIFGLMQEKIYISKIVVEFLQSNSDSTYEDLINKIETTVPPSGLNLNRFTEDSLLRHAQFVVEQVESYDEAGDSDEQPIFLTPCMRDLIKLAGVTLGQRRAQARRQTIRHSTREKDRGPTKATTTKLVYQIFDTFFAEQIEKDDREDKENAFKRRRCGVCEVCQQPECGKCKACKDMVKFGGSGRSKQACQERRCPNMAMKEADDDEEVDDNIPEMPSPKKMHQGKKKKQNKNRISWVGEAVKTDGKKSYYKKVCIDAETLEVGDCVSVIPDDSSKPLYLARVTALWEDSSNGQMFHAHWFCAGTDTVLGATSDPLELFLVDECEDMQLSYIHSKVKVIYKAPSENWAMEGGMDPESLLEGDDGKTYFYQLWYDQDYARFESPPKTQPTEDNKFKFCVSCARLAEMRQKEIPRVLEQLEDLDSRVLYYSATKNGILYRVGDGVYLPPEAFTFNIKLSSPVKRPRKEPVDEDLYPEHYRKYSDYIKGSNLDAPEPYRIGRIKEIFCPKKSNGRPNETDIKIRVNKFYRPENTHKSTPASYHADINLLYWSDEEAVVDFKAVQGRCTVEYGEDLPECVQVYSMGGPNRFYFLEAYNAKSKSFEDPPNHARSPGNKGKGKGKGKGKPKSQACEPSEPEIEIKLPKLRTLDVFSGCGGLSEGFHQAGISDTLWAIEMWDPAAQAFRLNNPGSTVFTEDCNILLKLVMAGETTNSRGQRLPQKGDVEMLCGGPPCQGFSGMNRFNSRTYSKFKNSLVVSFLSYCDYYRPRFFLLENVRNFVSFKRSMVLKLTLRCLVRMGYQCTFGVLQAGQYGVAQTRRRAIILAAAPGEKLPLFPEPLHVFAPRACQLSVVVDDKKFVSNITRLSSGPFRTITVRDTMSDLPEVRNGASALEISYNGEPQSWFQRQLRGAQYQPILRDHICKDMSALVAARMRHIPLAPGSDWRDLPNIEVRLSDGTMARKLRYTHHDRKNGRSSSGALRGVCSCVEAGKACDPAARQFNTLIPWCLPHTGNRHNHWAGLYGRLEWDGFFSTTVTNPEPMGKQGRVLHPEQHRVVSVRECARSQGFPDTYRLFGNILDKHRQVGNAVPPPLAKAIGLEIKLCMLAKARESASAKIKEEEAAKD
In experiment [2] the target is T1, Probable nicotinate-nucleotide adenylyltransferase (Staphylococcus aureus (strain N315), UniProt P65502). In kind it is functional, Staphylococcus aureus subsp. aureus N315.
T1 sequence (P65502 whole entry): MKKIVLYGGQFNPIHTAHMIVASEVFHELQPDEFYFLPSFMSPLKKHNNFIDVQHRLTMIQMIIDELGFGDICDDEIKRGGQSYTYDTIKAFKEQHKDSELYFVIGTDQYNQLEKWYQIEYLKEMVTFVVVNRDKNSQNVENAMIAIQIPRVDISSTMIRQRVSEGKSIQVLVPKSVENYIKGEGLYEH
Experiment [3] deals with T1, Probable nicotinate-nucleotide adenylyltransferase. In kind it is functional, Staphylococcus aureus subsp. aureus N315. The settings on record: read-out: IC50_Mean.
Experiment [4] deals with T2, Adenosylmethionine-8-amino-7-oxononanoate aminotransferase (Mycobacterium tuberculosis, UniProt P9WQ81).
T2 sequence (P9WQ81 whole entry): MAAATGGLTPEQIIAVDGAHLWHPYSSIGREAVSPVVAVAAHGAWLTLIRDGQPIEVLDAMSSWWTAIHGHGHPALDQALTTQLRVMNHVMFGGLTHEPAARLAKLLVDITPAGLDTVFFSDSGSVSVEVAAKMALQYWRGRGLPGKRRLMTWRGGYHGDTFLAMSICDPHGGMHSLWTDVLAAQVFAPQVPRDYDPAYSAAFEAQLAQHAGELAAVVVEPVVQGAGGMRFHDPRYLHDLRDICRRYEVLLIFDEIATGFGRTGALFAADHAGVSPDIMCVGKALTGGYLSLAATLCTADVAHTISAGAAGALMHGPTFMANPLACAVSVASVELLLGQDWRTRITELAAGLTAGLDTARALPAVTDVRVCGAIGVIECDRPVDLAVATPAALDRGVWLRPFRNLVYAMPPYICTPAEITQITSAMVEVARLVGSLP
The experiment is described as follows: Mycobacterium tuberculosis BioA enzyme inhibitor Measured in Biochemical System Using Plate Reader - 2163-02_Inhibitor_Dose_CherryPick_Activity. The experiment is classed as functional, Mycobacterium tuberculosis UT205.

Experiment [5] has as its target T3, Mitochondrial peptide methionine sulfoxide reductase (Bos taurus, UniProt P54149).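 Further: absorbance read-out, biochemical high-throughput dose-response screen for MsrA inhibitors, confirmatory; recombinant bovine MsrA coupled to E. coli TrxB with NADPH and selenocystamine; potency is for inhibitors of MsrA activity on DMSO substrate.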
T3 sequence (P54149 whole entry): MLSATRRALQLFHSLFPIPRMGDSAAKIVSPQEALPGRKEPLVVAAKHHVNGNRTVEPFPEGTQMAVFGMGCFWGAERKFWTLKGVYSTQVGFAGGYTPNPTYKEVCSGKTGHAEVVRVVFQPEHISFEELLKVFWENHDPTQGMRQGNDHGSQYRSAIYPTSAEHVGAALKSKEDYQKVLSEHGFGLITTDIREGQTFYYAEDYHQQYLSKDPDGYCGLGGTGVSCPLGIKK
In kind it is functional.

Experiment [6] in a line: AlphaScreen signal interference compounds, dose response, artefact control for ARNT-TACC3 interaction inhibitor project, biochemical, luminescence, cherry-pick (AID 651705).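 Further: AlphaScreen bead proximity signal that flags compounds interfering with the detection technology; potency reflects signal decrease which marks the compound as an assay artifact.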 In kind it is functional. Background: In Alpha technology, singlet oxygen from a donor bead excites a nearby acceptor bead.
In experiment [7] the target is T4, RNA-binding protein pos-1 (Caenorhabditis elegans, UniProt G5EF15).
T4 sequence (G5EF15 whole entry): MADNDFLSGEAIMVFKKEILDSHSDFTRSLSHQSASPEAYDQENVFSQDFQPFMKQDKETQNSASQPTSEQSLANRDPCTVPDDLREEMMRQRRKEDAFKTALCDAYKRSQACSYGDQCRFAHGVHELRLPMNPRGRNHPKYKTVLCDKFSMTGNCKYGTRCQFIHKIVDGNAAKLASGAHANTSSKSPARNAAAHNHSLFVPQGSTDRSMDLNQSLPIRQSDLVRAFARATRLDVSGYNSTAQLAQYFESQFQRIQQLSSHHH
In words: inhibitors of POS-1/mex-3 RNA binding, dose response, biochemical, fluorescence polarization (AID 1964).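 Further: purified POS-1 fused to maltose binding protein made in E. coli; potency of compounds blocking POS-1 binding to fluorescent RNA.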

Experiment [8] concerns the target T5, Zinc finger protein mex-5 (Caenorhabditis elegans, UniProt Q9XUB2).
T5 sequence (Q9XUB2 whole entry): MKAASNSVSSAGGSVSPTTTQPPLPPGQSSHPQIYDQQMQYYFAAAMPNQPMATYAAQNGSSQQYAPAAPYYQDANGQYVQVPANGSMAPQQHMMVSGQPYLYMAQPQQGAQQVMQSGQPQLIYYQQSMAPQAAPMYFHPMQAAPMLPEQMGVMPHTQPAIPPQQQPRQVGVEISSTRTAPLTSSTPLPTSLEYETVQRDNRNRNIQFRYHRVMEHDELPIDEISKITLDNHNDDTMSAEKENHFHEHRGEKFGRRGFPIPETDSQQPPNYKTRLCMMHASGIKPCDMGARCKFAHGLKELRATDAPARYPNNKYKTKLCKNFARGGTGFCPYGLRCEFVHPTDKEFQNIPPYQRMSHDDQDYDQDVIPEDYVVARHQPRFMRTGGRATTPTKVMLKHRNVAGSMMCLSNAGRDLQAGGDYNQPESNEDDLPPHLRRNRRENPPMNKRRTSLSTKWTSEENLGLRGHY
In words: MEX-5/TCR-2 RNA interaction inhibitors, dose response, biochemical, C. elegans, fluorescence polarization (AID 1960). For orientation: In fluorescence polarisation assays a small probe gives low polarisation when free and higher when bound to something large.

Experiment [9] concerns the target T6, Small ubiquitin-related modifier 1 (Homo sapiens, UniProt P63165). In words: inhibitors of SUMO1 peptide binding, dose response, biochemical, fluorescence polarization, uHTS hits (AID 624382). The experiment is classed as functional. Particulars: read-out: IC50_Mean.
The target in experiment [10] is T6, Small ubiquitin-related modifier 1. The experiment is described as follows: inhibitors of SUMO1 partner interactions, dose response, biochemical, FRET (AID 624383). In kind it is functional. The settings on record: read-out: IC50_Mean.
Experiment [11] addresses T7, High affinity choline transporter 1 (Homo sapiens, UniProt Q9GZV3).
T7 sequence (Q9GZV3 whole entry): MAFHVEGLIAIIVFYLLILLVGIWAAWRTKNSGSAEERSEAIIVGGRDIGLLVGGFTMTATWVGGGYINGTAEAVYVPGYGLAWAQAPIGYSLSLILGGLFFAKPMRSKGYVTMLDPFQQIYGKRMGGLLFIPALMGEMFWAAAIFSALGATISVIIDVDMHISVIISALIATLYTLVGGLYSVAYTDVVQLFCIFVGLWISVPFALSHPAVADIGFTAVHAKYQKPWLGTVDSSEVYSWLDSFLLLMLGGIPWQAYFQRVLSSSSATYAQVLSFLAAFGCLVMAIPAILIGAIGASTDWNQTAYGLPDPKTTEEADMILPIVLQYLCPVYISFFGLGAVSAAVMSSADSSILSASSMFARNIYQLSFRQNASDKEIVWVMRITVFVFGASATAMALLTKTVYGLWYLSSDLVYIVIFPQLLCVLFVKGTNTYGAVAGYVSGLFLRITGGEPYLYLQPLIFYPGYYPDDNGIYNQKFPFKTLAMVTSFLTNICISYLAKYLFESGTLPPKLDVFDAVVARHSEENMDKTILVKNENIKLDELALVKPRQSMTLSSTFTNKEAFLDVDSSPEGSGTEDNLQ
In words: CHT inhibitors, dose response, cell-based, 5-point CRC, membrane potential dye (AID 504840). In kind it is functional.

The target of experiment [12] is T7, High affinity choline transporter 1. In words: CHT inhibitors, dose response, cell-based, 10-point CRC, membrane potential dye (AID 588401).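 Further: membrane potential dye fluorescence of choline-evoked depolarization via CHT.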 In kind it is functional.
In a further experiment the target is T8, Aminopeptidase N (Plasmodium falciparum FcB1/Columbia, UniProt O96935).
T8 sequence (O96935 whole entry): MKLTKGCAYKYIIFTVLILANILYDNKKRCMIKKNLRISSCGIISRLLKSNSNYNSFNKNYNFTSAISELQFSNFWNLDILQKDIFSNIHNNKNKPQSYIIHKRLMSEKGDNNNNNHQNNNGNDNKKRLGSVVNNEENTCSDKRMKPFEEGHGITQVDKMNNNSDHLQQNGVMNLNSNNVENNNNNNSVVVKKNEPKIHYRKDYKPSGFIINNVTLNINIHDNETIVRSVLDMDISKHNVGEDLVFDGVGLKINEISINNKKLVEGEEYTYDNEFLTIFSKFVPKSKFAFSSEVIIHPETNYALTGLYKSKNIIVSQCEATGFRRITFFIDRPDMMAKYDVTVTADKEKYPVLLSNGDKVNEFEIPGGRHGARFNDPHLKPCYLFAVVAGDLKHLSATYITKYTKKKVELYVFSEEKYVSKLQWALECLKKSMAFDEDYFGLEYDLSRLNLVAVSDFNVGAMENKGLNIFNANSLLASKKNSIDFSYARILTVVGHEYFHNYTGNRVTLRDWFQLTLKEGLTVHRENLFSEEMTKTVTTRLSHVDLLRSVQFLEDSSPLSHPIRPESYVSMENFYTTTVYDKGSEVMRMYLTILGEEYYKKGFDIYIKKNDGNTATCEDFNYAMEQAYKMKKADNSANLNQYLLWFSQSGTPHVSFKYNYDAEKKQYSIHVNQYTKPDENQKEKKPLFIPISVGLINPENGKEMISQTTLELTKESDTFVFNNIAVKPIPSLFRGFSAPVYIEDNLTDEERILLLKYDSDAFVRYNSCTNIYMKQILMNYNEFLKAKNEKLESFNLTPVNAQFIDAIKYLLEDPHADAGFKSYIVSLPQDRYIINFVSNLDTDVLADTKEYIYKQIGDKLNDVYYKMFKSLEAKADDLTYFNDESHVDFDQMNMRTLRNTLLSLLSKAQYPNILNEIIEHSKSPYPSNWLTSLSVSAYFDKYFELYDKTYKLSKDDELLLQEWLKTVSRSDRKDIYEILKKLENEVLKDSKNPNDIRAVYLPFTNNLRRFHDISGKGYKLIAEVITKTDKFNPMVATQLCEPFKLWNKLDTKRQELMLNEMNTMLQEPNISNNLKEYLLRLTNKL
The experiment is described as follows: P. falciparum M1AAP inhibitors, biochemical, fluorogenic H-Leu-NHMec substrate, 1536-well (AID 1445). Further details: species or system Plasmodium falciparum 3D7, 3D7.

The nature of experiment [13]: cells. In kind it is functional, cell-based.
Experiment [14] can be described thus: cells. In kind it is functional, cell-based. The source holds these as a separate data set.
The target of a further experiment is Nonstructural protein 1 (Influenza A virus, UniProt Q194T2). The experiment is classed as functional, Influenza A virus (A/California/07/2009(H1N1)).
Sequence of Nonstructural protein 1 (Q194T2 whole entry): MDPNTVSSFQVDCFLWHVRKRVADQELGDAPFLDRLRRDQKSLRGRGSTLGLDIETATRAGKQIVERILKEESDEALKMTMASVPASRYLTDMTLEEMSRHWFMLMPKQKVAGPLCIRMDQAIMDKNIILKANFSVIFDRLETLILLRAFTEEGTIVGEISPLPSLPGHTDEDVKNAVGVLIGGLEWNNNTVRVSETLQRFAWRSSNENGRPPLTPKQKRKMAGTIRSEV
The target of experiment [15] is T9, Sentrin-specific protease 1 (Homo sapiens, UniProt Q9P0U3).
T9 sequence (Q9P0U3 whole entry): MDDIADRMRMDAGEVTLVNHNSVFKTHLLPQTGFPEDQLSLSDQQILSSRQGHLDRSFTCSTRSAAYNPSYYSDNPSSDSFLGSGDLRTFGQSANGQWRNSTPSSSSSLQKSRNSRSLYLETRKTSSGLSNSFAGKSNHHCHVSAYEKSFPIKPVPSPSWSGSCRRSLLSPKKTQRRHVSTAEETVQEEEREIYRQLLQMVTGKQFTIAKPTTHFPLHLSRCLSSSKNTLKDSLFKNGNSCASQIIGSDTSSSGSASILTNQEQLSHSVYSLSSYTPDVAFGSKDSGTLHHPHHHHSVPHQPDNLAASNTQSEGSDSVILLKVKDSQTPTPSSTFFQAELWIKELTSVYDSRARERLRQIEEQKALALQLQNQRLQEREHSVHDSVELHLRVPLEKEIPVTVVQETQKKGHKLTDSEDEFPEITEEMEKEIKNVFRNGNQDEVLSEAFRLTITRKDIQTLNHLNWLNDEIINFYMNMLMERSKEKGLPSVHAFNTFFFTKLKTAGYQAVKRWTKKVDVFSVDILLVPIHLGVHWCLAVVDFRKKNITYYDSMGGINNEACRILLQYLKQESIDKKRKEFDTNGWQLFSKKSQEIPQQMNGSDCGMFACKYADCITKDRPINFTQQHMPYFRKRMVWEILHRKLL
In words: potency of human SENP1 inhibitors, dose response, biochemical, kinetic FRET (AID 651697). In kind it is functional. The settings on record: read-out: IC50_Mean.

In experiment [16] the target is T9, Sentrin-specific protease 1. The experiment is described as follows: Dose response confirmation of small molecule inhibitors of the catalytic domain of the SUMO protease, SENP1 in a FRET assay. In kind it is functional. Particulars: read-out: IC50_Mean.

T6 sequence (P63165 whole entry): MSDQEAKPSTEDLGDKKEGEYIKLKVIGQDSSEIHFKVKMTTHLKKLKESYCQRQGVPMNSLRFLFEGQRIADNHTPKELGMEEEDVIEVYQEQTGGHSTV

Turning to `COc1ccc(Oc2c(OC)cc(NCc3ccc(CN)cc3)c3ncccc23)cc1`, the IC50 is 10.3 µM (active) in [1], 7.55 µM (active) in experiment [2] and 41.3 µM (active) in [3].
The AC50 is the midpoint of the concentration-response curve, whichever way the signal moves. Consider `CC(=O)c1ccc(N2CCN(C(=O)c3ccc(Br)cc3)CC2)c(F)c1`, for which the AC50 in experiment [4] is 0.182 µM (active).
With `C/C(CCC(=O)O)=N/Nc1ccc([N+](=O)[O-])cc1[N+](=O)[O-]`, the IC50 in experiment [5] is 155 µM (inactive).
Consider `CC1(C)CC(=O)C=C(c2ccc3ncccc3c2)C1`, for which the AC50 in experiment [4] was 4.74 µM (active).
For `O=C(Nc1ccc2nccnc2c1)c1cnccn1`, the AC50 in experiment [4] was 6.04 µM (active).
Take `O=C(CSc1ccc2nnc(-c3ccccn3)n2n1)Nc1ccc2c(c1)OCO2`: in [6], the AC50 is 107 µM (active).
Usually EC50 stands for the concentration at which the effect is half-maximal. For the compound `Cc1c(C(=O)O)cccc1-n1c(C)cc(/C=C2\C(=O)NC(=O)N(c3ccc4c(c3)OCO4)C2=O)c1C`, the EC50 in [7] and in experiment [8] was > 300 µM (not active) in each case. In addition, the IC50 in [1] is 18 µM (active).
Take `N#C/C(=C\Nc1ccccc1O)c1nc2ccccc2o1`: in [5], the IC50 is 155 µM (inactive).
For the compound `CC(=O)c1ccc(OCCCC(=O)OCC(=O)Nc2ccc3[nH]c(O)nc3c2)cc1`, the figures for the IC50 in experiment [9] and in [10] were > 66.6 µM (inactive) and 16.9 µM (active), respectively.
In the case of `CCc1occc(=O)c1Oc1cc(NN2CCCCC2)c([N+](=O)[O-])cc1[N+](=O)[O-]`, in experiment [5], the IC50 was 119 µM (inactive).
Consider `O=C(Nc1nnc(C2=COCCO2)o1)c1ccc([N+](=O)[O-])cc1`, for which the concentration at half-maximal activity (AC50) in experiment [6] is 101 µM (active).
Consider `O=[N+]([O-])c1cc(Br)cc(/C=N/c2ccc3c(c2)OCO3)c1O`, for which the IC50 was 9.12 µM (active) in [11] and 10 µM (active) in [12].
Consider `O=C(N/N=C/c1cc(Br)ccc1O)C(c1ccncc1)N1CCOCC1` (stereo not given), for which the results for the IC50 at Aminopeptidase N and at Nonstructural protein 1 were 12 µM (active) and 12.5 µM (active), respectively. In addition, the EC50 in “cells [13]” was 189 µM (active); in the experiment “cells [14]”, > 350 µM (not active). In [6], the AC50 was 78.4 µM (active).
For `Nc1ccc2c(c1)C(=O)N(CCCC(=O)O)C2=O`, the IC50 was 13.1 µM (active) in experiment [15] and 19 µM (active) in experiment [16].
